Data: patent US9884891B2, “KISS1R receptor agonist compounds and use thereof for inducing ovulation in mammals” (INSTITUT NATIONAL DE LA RECHERCHE AGRONOMIQUE, priority 2013, dated 2018)
Where two headings read alike, the source gives them in different places. *1 amine or outer side, *2 acyl side, *3 side chain or, on linkers, in order; H or OH if unused. Where a SMILES comes first, the peptide text is derived from it. [ ]: non-standard residue; d: D form. The star is where a group is joined. PEG 5000 = polyethylene glycol (5000) attached to the Lys side chain; Glyψ(1,4-Tz)Leu = CC(C)C[C@@H](C(=O)[*:2])n1cc(CN[*:1])nn1; γGlu = O=C(O)[C@H](CCC(=O)[*:2])N[*:1]; Arg(Me) = CNC(=N)NCCC[C@H](N)C(=O)O; Palmitoyl = CCCCCCCCCCCCCCCC(=O)*

How the values were obtained:
[1] = Test for proteolytic degradation of the peptide compounds in ovine serum; format: in vitro ADME, ewes of the Ile de France breed; conditions: female, Ile de France, sheep
Method: In order to carry out this test, blood was collected from the jugular vein of ewes of the Ile de France breed, and centrifuged. The supernatant (serum) was stored at −20° C. until use.
The degradation in this serum of the various peptide compounds in accordance with the invention and of the comparative peptide compounds is monitored over time. To this effect, each peptide compound to be analyzed and the internal calibrant (L-phenylalaninol) are dissolved in milliQ water (0.5 mM and 6.6 mM, respectively). The commercial protease inhibitor cocktail (Sigma, ref. P8340) is supplied in solution in DMSO.
The serum and the stock solutions of peptide compounds are preheated at 39° C. for 30 minutes. Each solution of peptide compound (50 μl, i.e. a final concentration in the serum of 50 μM) and the solution of internal calibrant (25 μl) are mixed with 425 μl of serum and incubated at 39° C. The proteolytic degradation kinetics of the compounds are monitored by taking a sample, at various given times, of 75 μl of the solution, which are diluted with 150 μL of acetonitrile in order to precipitate the serum proteins. The suspension obtained is centrifuged at 14 000 revolutions/min for 10 min at 4° C.
The amount of peptide compound intact after incubation is determined by integration of the area of the peak, using L-phenylalaninol as internal calibrant. It is expressed as % of the area of the peak at time t=0.
The value corresponding to 100% of intact peptide compound is obtained by mixing 420 μl of serum, 5 μl of the inhibitor cocktail and 25 μl of the phenylalaninol solution, followed by 50 μl of peptide compound, and then by immediately treating the resulting solution according to the protocol described above.

human KISS1R receptor = target: T1, human KISS1R receptor (Homo sapiens, UniProt Q969F8); experiment: Intracellular calcium mobilization test in HEK293A cells expressing human KISS1R; format: cell-based; conditions: for human KISS1R-stimulating power (in words): calcium mobilization, compared with Comp.1; for EC50: HEK293A cells expressing human KISS1R, Fluo-4NW
T1 construct: expressed in transfected cells
Excerpt: In order to carry out the in vitro tests for the activity of the peptide compounds in accordance with the invention and the comparative compounds, the HEK293A cell line (ATCC, American Type Culture Collection, Manassas, Va., USA) was stably transfected with the human KISS1R receptor (Genbank accession number: NM_032551). The pcDNA3.1 vector (Invitrogen, Cergy Pontoise, France), into which the sequence of human KISS1R has been inserted with a 5′ HA tag at position 957-2150 bp, was used for the transfection. The transfection and the selection of the clones were carried out as described in the literature (Mancini et al. 2009, and Invitrogen website).
In order to verify the agonist activity and to measure the EC50 of the peptide compounds according to the invention, the following protocol was carried out.
HEK293A cells expressing the human KISS1R receptor were seeded into a 96-well plate (μClear® black plate) at the concentration of 40 000 cells/well, and placed in an incubator at 37° C. After 48 hours, the medium was changed and the cells were incubated with the fluorescent dye Fluo-4NW, according to the instructions of the manufacturer (Molecular Probe).
After having measured the basal fluorescence, 5 μl of the 20× solution containing the test compound were added to each well (containing 95 μl) so as to obtain the desired concentration. The variations in fluorescence were recorded every 7 seconds for 5-7 minutes with a plate reader (PolarStar Optima, BMG Labtech). Activity-concentration curves were generated using the GraphPad Prism 5 software, and the EC50 of each compound was calculated by adjusting the curve to a sigmoid.

[2] = read-out: EC50, intracellular calcium mobilization of cells expressing human KISS1R (Table 2)
[3] = compounds with serum albumin binding unit or PEG, read-out: EC50, intracellular calcium mobilization of cells expressing human KISS1R (Table 3)
[4] = ovine serum, 39° C., 50 μM, 3 h, % of the area of the HPLC peak at time t = 0, read-out: % of peptide intact after 3 h of incubation in the serum

T1 sequence (Q969F8 whole entry): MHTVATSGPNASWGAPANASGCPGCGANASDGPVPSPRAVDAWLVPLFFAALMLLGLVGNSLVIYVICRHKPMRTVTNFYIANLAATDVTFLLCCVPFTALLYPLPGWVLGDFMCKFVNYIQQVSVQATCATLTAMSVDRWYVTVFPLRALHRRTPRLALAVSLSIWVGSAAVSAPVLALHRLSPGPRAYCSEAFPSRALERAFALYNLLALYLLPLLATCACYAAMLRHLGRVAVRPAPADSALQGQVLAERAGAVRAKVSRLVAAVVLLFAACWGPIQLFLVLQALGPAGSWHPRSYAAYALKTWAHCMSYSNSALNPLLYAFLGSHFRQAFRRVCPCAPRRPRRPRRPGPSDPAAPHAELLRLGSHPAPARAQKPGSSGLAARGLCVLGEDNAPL

CC(=O)N[C@@H](Cc1ccc(O)cc1)C(=O)N[C@@H](CC(N)=O)C(=O)N[C@@H](Cc1c[nH]c2ccccc12)C(=O)N[C@@H](CC(N)=O)C(=O)N[C@@H](CO)C(=O)N[C@@H](Cc1ccccc1)c1cn(Cc2cn([C@@H](CC(C)C)C(=O)N[C@@H](CCCNC(=N)N)C(=O)N[C@@H](Cc3ccc(O)cc3)C(N)=O)nn2)nn1 [Compound C5, Ac-Tyr-Asn-Trp-Asn-Ser-PheΨ[Tz]GlyΨ[Tz]Leu-Arg-Tyr-NH2]
remaining at 3 h, 50 μM ([1]; serum): 51% | human KISS1R-stimulating power (in words) (human KISS1R receptor): remains, however, active, although to a lesser degree

CNC(=N)NCCC[C@H](NC(=O)[C@H](CC(C)C)n1cc(CNC(=O)[C@H](Cc2ccccc2)NC(=O)[C@H](CO)NC(=O)[C@H](CC(N)=O)NC(=O)[C@H](Cc2c[nH]c3ccccc23)NC(=O)[C@H](CC(N)=O)NC(=O)[C@H](Cc2ccc(O)cc2)NC(C)=O)nn1)C(=O)N[C@@H](Cc1ccc(O)cc1)C(N)=O [Compound C3, Ac-Tyr-Asn-Trp-Asn-Ser-Phe-GlyΨ[Tz]Leu-Arg(Me)-Tyr-NH2] (HELM PEPTIDE1{[ac].Y.N.W.N.S.F.[CC(C)C[C@@H](C(=O)[*:2])n1cc(CN[*:1])nn1].[CNC(=N)NCCC[C@H](N[*:1])C(=O)[*:2]].Y.[am]}$$$$V2.0)
remaining at 3 h, 50 μM ([1]; serum): 55% | EC50 (human KISS1R receptor; [2]): 0.014 nM

CCCCCCCCCCCCCCCC(=O)N[C@@H](CCC(=O)N[C@@H](Cc1ccc(O)cc1)C(=O)N[C@@H](CC(N)=O)C(=O)N[C@@H](Cc1c[nH]c2ccccc12)C(=O)N[C@@H](CC(N)=O)C(=O)N[C@@H](CO)C(=O)N[C@@H](Cc1ccccc1)C(=O)NCc1cn([C@@H](CC(C)C)C(=O)N[C@@H](CCCNC(=N)N)C(=O)N[C@@H](Cc2ccc(O)cc2)C(N)=O)nn1)C(=O)O [Compound C9, γ-(N-hexadecanoyl-Glu-OH)-Tyr-Asn-Trp-Asn-Ser-Phe-GlyΨ[Tz]Leu-Arg-Tyr-NH2] (HELM PEPTIDE1{[CCCCCCCCCCCCCCCC(=O)[*:2]].[gGlu].Y.N.W.N.S.F.[CC(C)C[C@@H](C(=O)[*:2])n1cc(CN[*:1])nn1].R.Y.[am]}$$$$V2.0)
EC50 (human KISS1R receptor; [3]): < 0.001 nM

CCCCCCCCCCCCCCCC(=O)N[C@@H](CCC(=O)NCCCC[C@H](NC(=O)[C@H](CC(N)=O)NC(=O)[C@H](Cc1ccc(O)cc1)NC(C)=O)C(=O)N[C@@H](CC(N)=O)C(=O)N[C@@H](CO)C(=O)N[C@@H](Cc1ccccc1)C(=O)NCc1cn([C@@H](CC(C)C)C(=O)N[C@@H](CCCNC(=N)N)C(=O)N[C@@H](Cc2ccc(O)cc2)C(N)=O)nn1)C(=O)O [Compound C11, Ac-Tyr-Asn-Lys(γ-(N-hexadecanoyl-Glu-OH))-Asn-Ser-Phe-GlyΨ[Tz]Leu-Arg-Tyr-NH2] (HELM PEPTIDE1{[ac].Y.N.K.N.S.F.[CC(C)C[C@@H](C(=O)[*:2])n1cc(CN[*:1])nn1].R.Y.[am]}|PEPTIDE2{[CCCCCCCCCCCCCCCC(=O)[*:2]].[gGlu]}$PEPTIDE1,PEPTIDE2,4:R3-2:R2$$$V2.0)
human KISS1R-stimulating power (in words) (human KISS1R receptor): remains, however, active, although to a lesser degree

CCCCCCCCCCCCCCCC(=O)N[C@@H](CCC(=O)N[C@@H](Cc1ccc(O)cc1)C(=O)N[C@@H](CC(N)=O)C(=O)N[C@@H](Cc1c[nH]c2ccccc12)C(=O)N[C@@H](CC(N)=O)C(=O)N[C@@H](CO)C(=O)N[C@@H](Cc1ccccc1)C(=O)NCc1cn([C@@H](CC(C)C)C(=O)N[C@@H](CCCNC(=N)NC)C(=O)N[C@@H](Cc2ccc(O)cc2)C(N)=O)nn1)C(=O)O [Compound C12, γ-(N-hexadecanoyl-Glu-OH)Tyr-Asn-Trp-Asn-Ser-Phe-GlyΨ[Tz]Leu-Arg(Me)-Tyr-NH2] ({Palmitoyl-γGlu}-YNWNSF[Glyψ(1,4-Tz)Leu][Arg(Me)]Y-NH2)
EC50 (human KISS1R receptor; [3]): < 0.001 nM

CC(C)C[C@H](NC(=O)CNC(=O)[C@H](Cc1ccccc1)NC(=O)[C@H](CO)NC(=O)[C@H](CC(N)=O)NC(=O)[C@H](Cc1c[nH]c2ccccc12)NC(=O)[C@H](CC(N)=O)NC(=O)[C@@H](N)Cc1ccc(O)cc1)C(=O)N[C@@H](CCCNC(=N)N)C(=O)N[C@@H](Cc1ccccc1)C(N)=O [Comp. 2, reference compound]
remaining at 3 h, 50 μM [1, 4]: < 0.1%

CCCCCCCCCCCCCCCC(=O)N[C@@H](CCC(=O)N[C@@H](Cc1ccc(O)cc1)C(=O)N[C@@H](CC(N)=O)C(=O)N[C@@H](Cc1c[nH]c2ccccc12)C(=O)N[C@@H](CC(N)=O)C(=O)N[C@@H](CO)C(=O)N[C@@H](Cc1ccccc1)C(=O)NCc1cn([C@@H](CC(C)C)C(=O)N[C@@H](CCCNC(=N)N)C(=O)N[C@@H](Cc2c[nH]c3ccccc23)C(N)=O)nn1)C(=O)O [Compound C10, γ-(N-hexadecanoyl-Glu-OH)Tyr-Asn-Trp-Asn-Ser-Phe-GlyΨ[Tz]Leu-Arg-Trp-NH2] (HELM PEPTIDE1{[CCCCCCCCCCCCCCCC(=O)[*:2]].[gGlu].Y.N.W.N.S.F.[CC(C)C[C@@H](C(=O)[*:2])n1cc(CN[*:1])nn1].R.W.[am]}$$$$V2.0)
EC50 (human KISS1R receptor; [3]): < 0.001 nM

H-YNWNSFGLRY-NH2 [Comp. 1, reference compound]
remaining at 3 h, 50 μM [1, 4]: < 0.1%

CNC(=N)NCCC[C@H](NC(=O)[C@H](CC(C)C)n1cc(CNC(=O)[C@H](Cc2ccccc2)NC(=O)[C@@H](NC(=O)[C@H](CC(N)=O)NC(=O)[C@@H]2C[C@@H](O)CN2C(=O)[C@@H](Cc2ccc(O)cc2)NC(C)=O)[C@@H](C)O)nn1)C(=O)N[C@@H](Cc1c[nH]c2ccccc12)C(N)=O [Compound C7, Ac-DTyr-Hyp-Asn-Thr-Phe-GlyΨ[Tz]Leu-Arg(Me)-Trp-NH2] (HELM PEPTIDE1{[ac].[dY].[Hyp].N.T.F.[CC(C)C[C@@H](C(=O)[*:2])n1cc(CN[*:1])nn1].[CNC(=N)NCCC[C@H](N[*:1])C(=O)[*:2]].W.[am]}$$$$V2.0)
remaining at 3 h, 50 μM ([1]; serum): 17% | EC50 (human KISS1R receptor; [2]): 0.014 nM

CCCCCCCCCCCCCCCC(=O)N[C@@H](CCC(=O)N[C@@H](Cc1ccc(O)cc1)C(=O)N[C@@H](CC(N)=O)C(=O)N[C@@H](Cc1c[nH]c2ccccc12)C(=O)N[C@@H](CC(N)=O)C(=O)N[C@@H](CO)C(=O)N[C@@H](Cc1ccccc1)C(=O)NCc1cn([C@@H](CC(C)C)C(=O)N[C@@H](CCCNC(=N)N)C(=O)N[C@@H](Cc2ccccc2)C(N)=O)nn1)C(=O)O [Compound C13, γ-(N-hexadecanoyl-Glu-OH)Tyr-Asn-Trp-Asn-Ser-Phe-GlyΨ[Tz]Leu-Arg-Phe-NH2] (HELM PEPTIDE1{[CCCCCCCCCCCCCCCC(=O)[*:2]].[gGlu].Y.N.W.N.S.F.[CC(C)C[C@@H](C(=O)[*:2])n1cc(CN[*:1])nn1].R.F.[am]}$$$$V2.0)
EC50 (human KISS1R receptor; [3]): 0.01 nM

Ac-Tyr-Lys(PEG5000)-Trp-Asn-Ser-Phe-GlyΨ[Tz]Leu-Arg-Tyr-NH2 (Ac-YK(PEG 5000)WNSFGLRY-NH2; also: Gly7-Leu8 peptide bond replaced by 1,4-disubstituted 1,2,3-triazole) [Compound C16, PEG5000 = COCH2CH2NH(CH2CH2O)nMe, average molecular weight approximately 5000 g/mol]
human KISS1R-stimulating power (in words) (human KISS1R receptor): shows a power similar to the comparative compound Comp.1
